Measured values: patent US20250027085A1, “COMPOSITIONS AND METHODS FOR TREATING ALZHEIMER'S DISEASE UTILIZING A TRANSCRIPTIONAL MASTER REGULATOR OF THE RETROMER COMPLEX” (THE TRUSTEES OF COLUMBIA UNIVERSITY IN THE CITY OF NEW YORK, priority 2022, published 2025)
Entries after “also recorded” stand apart in the source; their conditions may differ.

Experiments:
rat hippocampal neurons [1] = experiment: RNA-seq of Aβ42-challenged neurons with dovitinib co-treatment; assay type: cell-based
Description: Basal expression levels were measured in vehicle-treated cells. DEGs identified in Aβ42 condition are compared against their expression values in neurons co-treated with dovinitib. Individual datapoints show fold-changes over baseline (log2-transformed) of n=2 biological replicates. Aβ42 and dovitinib were applied for 24 hours before RNA collection. […] FGF, fibroblast growth factor.
Prior to RNA collection, neuronal cultures were washed with ice-cold HBSS (Thermo Fischer) and lysed with TRIzol reagent (#15596026, Thermo Fisher) by scrapping. The reaction was allowed to proceed on ice for 5 minutes, at which point samples were centrifuged at 12,000 g and 4° C. and supernatants transferred to new tubes before a 1:1 (v/v) dilution with molecular biology-grade 100% ethanol (Millipore Sigma). The RNA extraction protocol was continued using the Direct-zol RNA MicroPrep kit (Zymo Research), in accordance to manufacturer's instructions, and included an on-column DNA digestion step with DNase I. RNA was eluted in 30 μl of water. RNA-seq library preparation and sequencing reactions were conducted at GENEWIZ, Inc. (South Plainfield, NJ, USA). RNA sequencing libraries were prepared using the NEBNext Ultra RNA Library Prep Kit for Illumina following manufacturer's instructions (NEB). Briefly, mRNAs were first enriched with oligo(dT) beads. […] The sequencing libraries were validated on an Agilent TapeStation (Agilent Technologies) and quantified using a Qubit 2.0 Fluorometer (Life Technologies) as well as quantitative PCR (KAPA Biosystems). […] RNA-seq sequencing data were processed and analyzed within the Galaxy web platform, using the public server at usegalaxy.org. First, library adapters and low-quality reads were removed using Trimmomatic (version 0.38) with the following settings: initial ILLUMINACLIP step to cut adapters and other Illumina-specific sequences from the reads, seedMismatches=2, palindromeClipThreshold=30, simpleClipThreshold=10, minAdapterLength=8, keepBothReads=True, AVGQUAL >20, SLIDINGWINDOW: windowSize=4 and requiredQuality=20, and MINLEN=50. […]

[2] = Schafer et al., 2016; cited from earlier work
neurons = details: Rodriguez et al., 2021; cited from earlier work
[3] = target: GFP-tagged CREB3L2-S1P- (full-length form with mutated S1P site) (UniProt Q70SY1)
[4] = target: T1, GFP-tagged H. sapiens CREB3L2, full-length form (UniProt Q70SY1)
T1 sequence: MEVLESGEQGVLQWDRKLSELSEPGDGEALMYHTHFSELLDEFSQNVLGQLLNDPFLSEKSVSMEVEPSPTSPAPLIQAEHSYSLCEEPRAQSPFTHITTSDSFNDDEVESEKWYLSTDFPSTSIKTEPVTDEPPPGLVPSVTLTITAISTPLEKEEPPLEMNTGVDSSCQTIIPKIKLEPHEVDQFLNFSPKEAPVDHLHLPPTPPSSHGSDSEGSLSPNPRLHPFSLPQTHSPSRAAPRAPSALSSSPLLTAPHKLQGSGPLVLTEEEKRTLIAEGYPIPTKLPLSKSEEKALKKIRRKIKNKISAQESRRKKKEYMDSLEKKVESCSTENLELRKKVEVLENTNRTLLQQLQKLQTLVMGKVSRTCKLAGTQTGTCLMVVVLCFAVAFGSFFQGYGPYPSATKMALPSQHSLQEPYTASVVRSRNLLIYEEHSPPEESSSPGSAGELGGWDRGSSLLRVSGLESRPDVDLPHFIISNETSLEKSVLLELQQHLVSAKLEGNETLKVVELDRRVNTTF

[5] = system: CREB3L2-ATF4 heterodimers; experiment: Proximity ligation assay (PLA) of axonal CREB3L2-ATF4 heterodimers; assay type: cell-based, rat; details: emetine 100 nM to axons, last 60 minutes of 12-hour Aβ42 protocol
Description: Hippocampi were dissected from embryonic day (E) 16-18 rat embryos obtained from pregnant Sprague-Dawley dams (Envigo). All animal procedures were approved by the Institutional Animal Care and Use Committee at Columbia University. Cell dissociation was performed using TripLE Express. Neurons (50,000-60,000 per microfluidic chamber) were plated on 0.1 mg ml^-1 poly-D-lysine (Millipore Sigma) and 2 μg ml^-1 laminin (Bio-Techne) coated substrates and grown in Neurobasal supplemented with 10% fetal bovine serum, 2 mM L-glutamine, 1 mM sodium pyruvate, and antibiotics (50 U ml^-1 penicillin-streptomycin). Tripartite microfluidic chambers were produced with Dow Corning Sylgard 184 Silicone Encapsulant Clear Kit (10:1 mix ratio; Ellsworth Adhesives) cured at […] for at least 4 hours following published protocols (Park et al. 2006; Desai et al. 2009). Chamber design incorporated two sets of 200-μm-long microgroove barriers to exclude crossing of cell bodies and dendrites (Taylor et al. 2005; […] et al. 2009). After 24 hours, medium was changed to Neurobasal containing 1×B27 and 2 mM L-glutamine. Subsequent medium changes (half volumes) were performed at DIV4 and thereafter every 3-5 days. To prevent glial cell proliferation, medium changes included 5-flurodeoxyuridine and uridine (final concentration […]; Millipore Sigma) after DIV4. […]

rat hippocampal neurons [6] = experiment: Neuronal viability (RealTime-Glo MT) after 48-hour Aβ42 stimulation; assay type: cell-based; details: lentiviral delivery at DIV1; Aβ42 750 nM 48 hours; relative to wild-type neurons; Aβ42/vehicle ratios
Description: Plots show individual measurements and mean±SEM of n=3 biological replicates. For each background, data are presented as Aβ42/vehicle ratios. ATF4 aZIP: *P-value=0.0167; CREB3L2 aZIP: *P-value=0.0137; unpaired t-tests.
Specific aZIPs sequences were synthesized by Genewiz. CREB3L2 aZIP: 5′-[…]-3′. (SEQ ID NO: 68) ATF4 aZIP: 5′-[…]-3′. […] Lentiviral particles were delivered at DIV1, 24 hours post-dissection. Neuronal cultures were allowed to mature until DIV15 and treated with Aβ42 at 750 nM for 48 hours. Cell viability was assayed using RealTime-Glo MT Cell Viability Assay (Promega) following manufacturer's guidelines; reaction was allowed to proceed for 1 hour before taking luminescence readings (SpectraMax iD5, Molecular Devices). Also see FIGS. 34A-34D.

CN1CCN(c2ccc3nc(-c4c(N)c5c(F)cccc5[nH]c4=O)[nH]c3c2)CC1 [dovitinib]
number of genes surpassing 0.25 differences in head-to-head comparisons (rat hippocampal neurons [1]; 24-hour Aβ42 + dovitinib vs Aβ42): 30
number of Aβ42 DEGs (of 203) showing corrective shifts 0.10 with dovitinib co-treatment (rat hippocampal neurons [1]; 24-hour Aβ42 + dovitinib, log fold-change, n=2): 131
Vgf log fold-change [Aβ42+dovitinib] (rat hippocampal neurons [1]; 24 hours, Aβ42 alone log fold-change 0.57, over vehicle baseline): 0.07
crossing of the blood-brain barrier [2]: can cross
toxicity to neurons (neurons): non-toxic

site 2 protease (S2P)
CREB3L2 proteolytic cleavage (western blot, coexpression in HEK293) [3]: Preventing S1P processing by eliminating its cleavage site does not impede S2P-mediated processing
CREB3L2 proteolytic cleavage (western blot, coexpression in HEK293) [4]: Coexpression of S2P, but not S1P, together with full-length GFP-CREB3L2 in HEK293 cells is sufficient to promote the activation of CREB3L2

CC[C@H]1CN2CCc3cc(OC)c(OC)cc3[C@@H]2C[C@@H]1C[C@H]1NCCc2cc(OC)c(OC)cc21 [emetine]
Aβ42-induced upregulation of axonal CREB3L2-ATF4 heterodimers (PLA) [5]: completely prevented; also recorded: limited their association in axons to control levels

site 1 protease (S1P)
CREB3L2 proteolytic cleavage (western blot, coexpression in HEK293) [4]: Coexpression of S2P, but not S1P, together with full-length GFP-CREB3L2 in HEK293 cells is sufficient to promote the activation of CREB3L2

B1: CREB3L2 aZIP: dominant-negative acidic-ZIP peptide targeting CREB3L2, encoded by nucleotide SEQ ID NO: 68, delivered by lentivirus (protein)
peptide: MDYKDDDDKHMASMTGGQQMGRDPDLEQRAEELARENEELEKEAEELEQELAELRKKVEVLENTNRTLLQQLQKLQTLVMGKVSRTCKLAGTQTGTCLMVVVL
cell viability in neurons exposed to Aβ42 (rat hippocampal neurons [6]): significantly improved

B2: ATF4 aZIP: dominant-negative acidic-ZIP peptide targeting ATF4, encoded by nucleotide SEQ ID NO: 69, delivered by lentivirus (protein)
peptide: MDYKDDDDKHMASMTGGQQMGRDPDLEQRAEELARENEELEKEAEELEQELAELTGECKELEKKNEALKEKADSLAKEIQYLKDLIEEVRKARGKKRVP
cell viability in neurons exposed to Aβ42 (rat hippocampal neurons [6]): significantly improved
